Patent US9957271B2, “Substituted bicyclic aza-heterocycles and analogues as sirtuin modulators” (GlaxoSmithKline, LLC, priority 2012, dated 2018)

Key:
SIRT1 [1] = target: T1, SIRT1 (Homo sapiens, UniProt Q96EB6); test: TAMRA based mass spectrometry assay of SIRT1 activity; type: biochemical; conditions: TAMRA peptide substrate; for TAMRA EC1.5 (μM): concentration of test compound giving 150% activation of SIRT1; for Emax: percent maximum fold activation of SIRT1, read-out: TAMRA % Fold Act
T1 sequence (Q96EB6 1-747): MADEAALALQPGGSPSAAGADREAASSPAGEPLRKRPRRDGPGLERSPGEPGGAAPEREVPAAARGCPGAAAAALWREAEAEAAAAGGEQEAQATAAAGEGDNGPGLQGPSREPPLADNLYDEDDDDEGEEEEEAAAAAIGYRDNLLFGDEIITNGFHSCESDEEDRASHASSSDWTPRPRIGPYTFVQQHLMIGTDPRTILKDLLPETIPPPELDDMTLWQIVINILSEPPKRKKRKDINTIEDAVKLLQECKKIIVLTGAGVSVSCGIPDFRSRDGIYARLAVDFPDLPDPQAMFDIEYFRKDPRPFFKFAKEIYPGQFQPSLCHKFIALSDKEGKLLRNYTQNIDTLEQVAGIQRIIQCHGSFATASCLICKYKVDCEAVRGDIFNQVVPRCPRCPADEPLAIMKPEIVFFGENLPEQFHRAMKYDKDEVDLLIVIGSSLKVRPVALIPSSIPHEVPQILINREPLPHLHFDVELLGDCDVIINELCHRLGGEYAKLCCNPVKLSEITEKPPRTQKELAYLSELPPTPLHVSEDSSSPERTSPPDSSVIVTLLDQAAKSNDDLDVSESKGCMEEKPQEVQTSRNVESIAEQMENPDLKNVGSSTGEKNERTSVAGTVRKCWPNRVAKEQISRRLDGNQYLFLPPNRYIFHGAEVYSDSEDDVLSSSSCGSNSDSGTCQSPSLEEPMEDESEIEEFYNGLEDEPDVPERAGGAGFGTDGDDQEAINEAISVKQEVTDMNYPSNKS
Procedure, shortened: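 Deacetylation of a biotinylated, TAMRA-tagged p53-based peptide (0.5 μM) by 10 nM His-tagged SIRT1 with 120 μM βNAD+, 25 °C for 25 min, pH 8 Tris-acetate buffer, across a compound concentration range. Quenched by formic acid and read by mass spec as product peptide or OAADPR; activity relative to DMSO reactions, nicotinamide defining maximal inhibition.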

SIRT1 [2] = target: T1, SIRT1; test: Trp mass spectrometry assay of SIRT1 activity; type: biochemical; conditions: Trp peptide substrate; for Trp EC1.5 (μM): concentration of test compound giving 150% activation of SIRT1; for Emax: percent maximum fold activation of SIRT1, read-out: Trp % Fold Act
Procedure, shortened: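 Activation readout: EC1.5 (concentration raising activity 50% over control) and percent maximum activation, from mass-spec quantitation of OAADPR or deacetylated Trp peptide. Reaction: 0.5 μM acetylated Trp peptide, 120 μM βNAD+, 10 nM bacterially expressed N-His SIRT1, pH 7.5 HEPES buffer with […], 25 min at 25° C.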

Row | TAMRA EC1.5 (μM) (SIRT1 [1]) | Emax (SIRT1 [1]) | Trp EC1.5 (μM) (SIRT1 [2]) | Emax (SIRT1 [2]) | Structure (SMILES)
1 | – | – | – | ≥ 350% | Cc1nn2ccc(N3CCC[C@@H]3C(F)(F)F)nc2c1C(=O)Nc1cccc(-c2cnco2)n1 [Compound 1086]
2 | – | – | – | ≥ 350% | Cc1nn2ccc(N3CCC[C@@H]3C(F)(F)F)nc2c1C(=O)Nc1cc(-c2cnco2)ccn1 [Compound 1087]
3 | – | – | – | ≥ 350% | Cc1nc(NC(=O)c2cnn3ccc(N4CCC[C@@H]4C(F)(F)F)nc23)sc1C [Compound 1088]
4 | – | – | – | < 350% | O=C(Nc1cncc(F)c1)c1cnn2ccc(N3CCC[C@@H]3C(F)(F)F)nc12 [Compound 1089]
5 | – | – | – | < 350% | O=C(Nc1ccccn1)c1cnn2ccc(N3CCC[C@@H]3C(F)(F)F)nc12 [Compound 1090]
6 | – | – | – | ≥ 350% | O=C(Nc1cc(-c2cnco2)ccn1)c1cnn2ccc(N3CCC[C@@H]3C(F)(F)F)nc12 [Compound 1091]
7 | – | – | – | ≥ 350% | Cn1cc2ccc(NC(=O)c3cnc4ccc(N5CCCC5C(F)(F)F)nn34)cc2n1 (stereo not drawn) [Compound 1092]
8 | – | – | – | < 350% | O=C(Nc1ccncn1)c1cnn2ccc(N3CCC[C@@H]3C(F)(F)F)nc12 [Compound 1093]
9 | – | – | – | ≥ 350% | CN1CCc2ncc(NC(=O)c3cnc4ccc(N5CCCC5C(F)(F)F)nn34)cc2C1 (stereo not drawn) [Compound 1094]
10 | – | – | – | ≥ 350% | O=C(Nc1cnc2c(c1)COCC2)c1cnc2ccc(N3CCCC3C(F)(F)F)nn12 (stereo not drawn) [Compound 1095]
11 | – | – | – | ≥ 350% | O=C(Nc1nc2c(s1)CCCC2)c1cnc2ccc(N3CCCC3C(F)(F)F)nn12 (stereo not drawn) [Compound 1096]
12 | – | – | – | ≥ 350% | O=C(Nc1cccc2c1COB2O)c1cnc2ccc(N3CCCC3C(F)(F)F)nn12 (stereo not drawn) [Compound 1097]
13 | – | – | – | ≥ 350% | O=C(Nc1cc(-c2cnco2)ccn1)c1cnc2ccc(N3CCCC3C(F)(F)F)nn12 (stereo not drawn) [Compound 1098]
14 | – | – | – | ≥ 350% | O=C(Nc1cccc(-c2cnco2)n1)c1cnc2ccc(N3CCCC3C(F)(F)F)nn12 (stereo not drawn) [Compound 1099]

The next lines start with the compound.

Row | Structure (SMILES) | TAMRA EC1.5 (μM) (SIRT1 [1]) | Emax (SIRT1 [1]) | Trp EC1.5 (μM) (SIRT1 [2]) | Emax (SIRT1 [2])
15 | O=C(Nc1cccnc1)c1cnc2ccc(-c3cccc(C(F)(F)F)c3)nn12 [Compound 2] | B (EC1.5 1-25 μM) | < 350% | A (EC1.5<1 μM) | ≥ 350%
16 | O=C(Nc1cccc(CN2CCOCC2)n1)c1cnc2ccc(-c3cccc(C(F)(F)F)c3)nn12 [Compound 5] | A (EC1.5<1 μM) | ≥ 350% | B (EC1.5 1-25 μM) | < 350%
17 | O=C(Nc1ccccn1)c1cnc2ccc(-c3cccc(OC(F)(F)F)c3)nn12 [Compound 8] | B (EC1.5 1-25 μM) | < 350% | B (EC1.5 1-25 μM) | < 350%
18 | CS(=O)(=O)c1cccc(-c2ccc3ncc(C(=O)Nc4nccs4)n3n2)c1 [Compound 11] | C (EC1.5>25 μM) | < 350% | A (EC1.5<1 μM) | ≥ 350%
19 | O=C(Nc1ccccn1)c1cnc2ccc(-c3ccccc3OC(F)(F)F)nn12 [Compound 14] | A (EC1.5<1 μM) | ≥ 350% | B (EC1.5 1-25 μM) | ≥ 350%
20 | Cc1cnc(NC(=O)c2cnc3ccc(-c4cccc(C(F)(F)F)c4)nn23)s1 [Compound 17] | B (EC1.5 1-25 μM) | < 350% | B (EC1.5 1-25 μM) | < 350%
21 | O=C(Nc1nc(CN2CCOCC2)cs1)c1cnc2ccc(-c3ccccc3C(F)(F)F)nn12 [Compound 20] | A (EC1.5<1 μM) | ≥ 350% | B (EC1.5 1-25 μM) | < 350%
22 | O=C(Nc1ccnc(CN2CCOCC2)n1)c1cnc2ccc(-c3ccccc3C(F)(F)F)nn12 [Compound 23] | B (EC1.5 1-25 μM) | ≥ 350% | B (EC1.5 1-25 μM) | < 350%
23 | O=C(Nc1ccnc(N2CCCC2)c1)c1cnc2ccc(-c3ccccc3C(F)(F)F)nn12 [Compound 25] | A (EC1.5<1 μM) | ≥ 350% | A (EC1.5<1 μM) | ≥ 350%
24 | O=C(Nc1cccc(CN2CCOCC2)n1)c1cnc2ccc(-c3cccc(Cl)c3)nn12 [Compound 26] | A (EC1.5<1 μM) | ≥ 350% | C (EC1.5>25 μM) | < 350%
25 | O=C(Nc1nc(CN2CCOCC2)cs1)c1cnc2ccc(-c3cccc(F)c3)nn12 [Compound 29] | B (EC1.5 1-25 μM) | < 350% | B (EC1.5 1-25 μM) | < 350%
26 | O=C(Nc1ccccn1)c1cnc2ccc(-c3ccccc3C(F)F)nn12 [Compound 32] | B (EC1.5 1-25 μM) | < 350% | B (EC1.5 1-25 μM) | < 350%
27 | O=C(Nc1cccc(CN2CCOCC2)n1)c1cnc2ccc(-c3ccccc3C(F)F)nn12 [Compound 34] | A (EC1.5<1 μM) | ≥ 350% | B (EC1.5 1-25 μM) | < 350%
28 | O=C(Nc1nc(CN2CCOCC2)cs1)c1cnc2ccc(-c3ccccc3C(F)F)nn12 [Compound 35] | B (EC1.5 1-25 μM) | < 350% | C (EC1.5>25 μM) | < 350%
29 | O=C(Nc1ccnc(CN2CCOCC2)n1)c1cnc2ccc(-c3ccccc3C(F)F)nn12 [Compound 38] | B (EC1.5 1-25 μM) | < 350% | C (EC1.5>25 μM) | < 350%
30 | O=C(Nc1cccc(CN2CCOCC2)n1)c1cnc2ccc(-c3ccc(F)cc3F)nn12 [Compound 41] | B (EC1.5 1-25 μM) | < 350% | C (EC1.5>25 μM) | < 350%
31 | O=C(Nc1cccc(CN2CCOCC2)n1)c1cnc2ccc(-c3ccc(F)c(F)c3)nn12 [Compound 43] | B (EC1.5 1-25 μM) | < 350% | C (EC1.5>25 μM) | < 350%
32 | O=C(Nc1nc(CN2CCOCC2)cs1)c1cnc2ccc(-c3ccc(F)c(F)c3)nn12 [Compound 44] | B (EC1.5 1-25 μM) | < 350% | B (EC1.5 1-25 μM) | < 350%
33 | O=C(Nc1cccc(CN2CCOCC2)n1)c1cnc2ccc(-c3cccc(F)c3F)nn12 [Compound 47] | A (EC1.5<1 μM) | ≥ 350% | C (EC1.5>25 μM) | < 350%
34 | O=C(Nc1ccnc(N2CCC2)c1)c1cnc2ccc(-c3ccccc3C(F)(F)F)nn12 [Compound 50] | A (EC1.5<1 μM) | ≥ 350% | A (EC1.5<1 μM) | ≥ 350%
35 | O=C(Nc1cccc(N2CCC2)n1)c1cnc2ccc(-c3ccccc3C(F)F)nn12 [Compound 51] | A (EC1.5<1 μM) | ≥ 350% | B (EC1.5 1-25 μM) | ≥ 350%
36 | Cc1noc(C)c1-c1ccc2ncc(C(=O)Nc3cccc(N4CCOCC4)n3)n2n1 [Compound 53] | B (EC1.5 1-25 μM) | < 350% | B (EC1.5 1-25 μM) | < 350%
37 | Cn1cc(-c2ccc3ncc(C(=O)Nc4cccc(N5CCOCC5)n4)n3n2)cn1 [Compound 56] | B (EC1.5 1-25 μM) | < 350% | B (EC1.5 1-25 μM) | < 350%
38 | Cc1ncccc1-c1ccc2ncc(C(=O)Nc3ccnc(N4CCCC4)c3)n2n1 [Compound 59] | B (EC1.5 1-25 μM) | < 350% | C (EC1.5>25 μM) | < 350%
39 | O=C(Nc1ccnc(N2CCC2)c1)c1cnc2ccc(-c3cncc(C(F)F)c3)nn12 [Compound 62] | B (EC1.5 1-25 μM) | < 350% | C (EC1.5>25 μM) | < 350%
40 | O=C(Nc1ccnc(N2CCOCC2)c1)c1nnc2ccc(-c3ccccc3C(F)F)nn12 [Compound 68] | B (EC1.5 1-25 μM) | < 350% | B (EC1.5 1-25 μM) | < 350%
41 | Cc1nn2ccc(N3CCC[C@@H]3C(F)(F)F)nc2c1C(=O)Nc1cnccn1 [Compound 1084] | – | – | – | ≥ 350%
42 | COc1nccc(NC(=O)c2c(C)nn3ccc(N4CCC[C@@H]4C(F)(F)F)nc23)n1 [Compound 1085] | – | – | – | ≥ 350%
